According to paper PMC4336573 (Chemistry & biology, 2015):

Target: T1, CBX7ChD (Homo sapiens, UniProt O95931)
T1 sequence (O95931 11-69 limits assumed): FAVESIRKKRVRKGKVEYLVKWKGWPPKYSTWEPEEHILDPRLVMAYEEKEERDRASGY
Assay type: binding

Row | Compound | IC50
1 | O=C(O)c1cc(O)c2c(c1)[C@H]([C@H]1c3cc(C(=O)O)cc(O)c3C(=O)c3c(O[C@@H]4O[C@H](CO)[C@@H](O)[C@H](O)[C@H]4O)cccc31)c1cccc(O[C@@H]3O[C@H](CO)[C@@H](O)[C@H](O)[C@H]3O)c1C2=O [Sennoside A] | 33.3 µM
2 | Cc1cc(-c2ccc(/N=N/c3c(S(=O)(=O)O)cc4cc(S(=O)(=O)O)cc(N)c4c3O)c(C)c2)ccc1/N=N/c1c(S(=O)(=O)O)cc2cc(S(=O)(=O)O)cc(N)c2c1O [Trypan blue] | 7.5 µM
3 | Cc1cc(-c2ccc(/N=N/c3ccc4c(S(=O)(=O)O)cc(S(=O)(=O)O)c(N)c4c3O)c(C)c2)ccc1/N=N/c1ccc2c(S(=O)(=O)O)cc(S(=O)(=O)O)c(N)c2c1O [Evans blue] | 3.9 µM
4 | O=C(O)C1=CC(=C(c2ccc(O)c(C(=O)O)c2)c2ccc(O)c(C(=O)O)c2)C=CC1=O [Aurin tricarboxylic acid] | 5.5 µM
